Data on 9 molecules can be found in patent US20200087284A1, “[4-(PHENYLSULFONYL)PIPERAZIN-1-YL](1H-1, 2, 3-TRIAZOL-4-YL)METHANONES” (priority 2016, published 2020).

The structures appear in SMILES notation.

This assay has as its target T1, recombinant human AKR1C3 (Homo sapiens, UniProt P42330).
T1 construct: GST (cleaved yes); made in house; host or cells: E. coli
T1 sequence (P42330 1-323): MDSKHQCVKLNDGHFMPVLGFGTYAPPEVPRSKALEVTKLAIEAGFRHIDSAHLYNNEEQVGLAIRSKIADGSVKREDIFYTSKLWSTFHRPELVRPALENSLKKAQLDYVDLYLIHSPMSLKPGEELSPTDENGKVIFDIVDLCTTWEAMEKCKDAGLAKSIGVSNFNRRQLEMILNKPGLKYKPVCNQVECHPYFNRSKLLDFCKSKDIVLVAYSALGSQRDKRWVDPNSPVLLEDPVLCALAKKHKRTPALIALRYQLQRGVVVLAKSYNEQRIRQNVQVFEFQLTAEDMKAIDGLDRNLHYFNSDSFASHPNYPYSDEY
Nature of the assay: AKR1C3-inhibitory activity assay (Coumberone to Coumberol fluorescence). The format is biochemical. The note with it: recombinant human AKR1C3, 10 μM NADPH, 0.3 μM Coumberone, 22° C., typically 90 min. Here is the method:
AKR1C3-Inhibitory Activity Assay
The AKR1C3-inhibitory activity of the substances of the present invention was measured in the AKR1C3 assay described in the paragraphs below.
Essentially, the enzyme activity is measured by quantification of the generation of Coumberol from Coumberone (Halim et al. J. AM. CHEM. SOC. 2008, 130:14123-14128 and Yee et al. Proc. Natl. Acad. Sci. USA 2006, 103:13304-13309). In this test, the increase of the highly fluorescent Coumberol by NADPH- (nicotinamide adenine dinucleotide phosphate)-dependent reduction of the non-fluorescent Coumberone by AKR1C3 was determined.
The enzyme used was recombinant human AKR1C3 (Aldo-keto reductase family 1 member C3; GenBank Accession No. NM_003739). This was expressed in E. coli as GST (glutathione S transferase) fusion protein and purified by glutathione Sepharose affinity chromatography. The GST was removed by digestion with thrombin and subsequent size exclusion chromatography (Dufort, I., Rheault, P., Huang, X F., Soucy, P., and Luu-The, V., Endocrinology 140, 568-574 (1999)).
For the assay, 50 nI of a 100-fold concentrated solution of the test substance in DMSO were pipetted into a black low-volume 384-well microtiter plate (Greiner Bio-One, Frickenhausen, Germany), 2.5 μl of a solution of AKR1C3 in assay buffer [50 mM potassium phosphate buffer pH 7, 1 mM DTT, 0.0022% (w/v) Pluronic F-127, 0.01% BSA (w/v) and protease inhibitor cocktail (Complete, EDTA-free Protease Inhibitor Cocktail from Roche)] were added and the mixture was incubated for 15 min to allow pre-binding of the substances to the enzyme prior to the enzyme reaction. The enzyme reaction was then started by addition of 2.5 μl of a solution of NADPH (20 μM→final concentration in 5 μl of assay volume is 10 μM) and Coumberone (0.6 μM→final concentration in 5 μl of assay volume is 0.3 μM) in assay buffer, and the resulting mixture was incubated at 22° C. for the reaction time of typically 90 min. The concentration of the AKR1C3 and the reaction time was adapted to the respective activity of the enzyme preparation and adjusted such that the assay was carried out in the linear range. Typical AKR1C3 concentrations were in the region of 1 nM. The reaction was stopped by addition of 2.5 μl of a stop solution consisting of 3 μM EM-1404 as inhibitor (U.S. Pat. No. 6,541,463) in 50 mM HEPES pH7.5 (3 μM EM-1404→final concentration in 7.5 μl of assay volume is 1 μM). The fluorescence of the Coumberole was then measured at 520 nm (excitation at 380 nm) using a suitable measuring instrument (Pherastar from BMG Labtechnologies). The intensity of the fluorescence was used as a measure of the amount of Coumberole formed and thus of the enzyme activity of AKR1C3. The data were normalized (enzyme reaction without inhibitor=0% inhibition; all other assay components, but no enzyme=100% inhibition).

Turning to `C[C@@H]1CN(S(=O)(=O)c2ccc(F)cc2F)C[C@H](C)N1C(=O)c1c[nH]nn1` [Example 4, {(2R,6S)-4-[(2,4-difluorophenyl)sulfonyl]-2,6-dimethylpiperazin-1-yl}(1H-1,2,3-triazol-4-yl)methanone], the IC50 worked out at 12 nM. With `CCc1ccc(S(=O)(=O)N2CCN(C(=O)c3cnn[nH]3)CC2(C)C)cc1` [Example 7, {4-[(4-ethylphenyl)sulfonyl]-3,3-dimethylpiperazin-1-yl}(1H-1,2,3-triazol-5-yl)methanone], the IC50 stood at 8 nM. For `CC1(C)CN(C(=O)c2cnn[nH]2)CCN1S(=O)(=O)c1ccc(F)cc1F` [Example 8, {4-[(2,4-difluorophenyl)sulfonyl]-3,3-dimethylpiperazin-1-yl}(1H-1,2,3-triazol-5-yl)methanone] the value was 45 nM; for `Cc1ccc(S(=O)(=O)N2C[C@H](C)N(C(=O)c3cnn[nH]3)C[C@H]2C)cc1` [Example 1, {(2S,5R)-2,5-dimethyl-4-[(4-methylphenyl)sulfonyl]piperazin-1-yl}(1H-1,2,3-triazol-5-yl)methanone], 6 nM; for `Cc1ccc(S(=O)(=O)N2CCN(C(=O)c3cnn[nH]3)CC2(C)C)cc1` [Example 6, {3,3-dimethyl-4-[(4-methylphenyl)sulfonyl]piperazin-1-yl}(1H-1,2,3-triazol-5-yl)methanone], 8 nM.

In the case of `C[C@@H]1CN(S(=O)(=O)c2ccc(C(F)(F)F)cc2)C[C@H](C)N1C(=O)c1c[nH]nn1` [Example 5, [(2R,6S)-2,6-dimethyl-4-{[4-(trifluoromethyl)phenyl]sulfonyl}piperazin-1-yl](1H-1,2,3-triazol-4-yl)methanone], the IC50 amounted to 107 nM.

In the case of `Cc1ccc(S(=O)(=O)N2C[C@@H](C)N(C(=O)c3c[nH]nn3)[C@@H](C)C2)cc1` [Example 3, {(2R,6S)-2,6-dimethyl-4-[(4-methylphenyl)sulfonyl]piperazin-1-yl}(1H-1,2,3-triazol-4-yl)methanone], the IC50 came to 24 nM. For `CC1(C)CN(C(=O)c2cnn[nH]2)CCN1S(=O)(=O)c1ccc(F)cc1Cl` [Example 9, {4-[(2-chloro-4-fluorophenyl)sulfonyl]-3,3-dimethylpiperazin-1-yl}(1H-1,2,3-triazol-5-yl)methanone], the IC50 came to 11 nM. For the molecule `C[C@@H]1CN(C(=O)c2cnn[nH]2)[C@@H](C)CN1S(=O)(=O)c1ccc(F)cc1F` [Example 2, {(2S,5R)-4-[(2,4-difluorophenyl)sulfonyl]-2,5-dimethylpiperazin-1-yl}(1H-1,2,3-triazol-5-yl)methanone], the concentration for half-maximal inhibition (IC50) is 3 nM.

Broadly, the IC50 is the concentration needed to halve the response being measured.
